# Literature values in US7691903B2, “Oxidation-sensitive hydrophilic active principle containing composition and use thereof” (L'Oreal, priority 2002, dated 2010).
# Conditions: ascorbic acid derivatives; J. Am. Acad. Dermatol., 1996, 34, 29-33
structure (smiles),measurement,value
O=C1O[C@H]([C@@H](O)CO)C([O-])=C1OP(=O)([O-])[O-].O=C1O[C@H]([C@@H](O)CO)C([O-])=C1OP(=O)([O-])[O-].[Mg+2].[Mg+2].[Mg+2] [magnesium ascorbyl phosphate],bioavailability,very low
